Measured values: US8642626B2, “Ethinyl-pyrazole derivative” (Taisho Pharmaceutical Co., Ltd., priority 2010, dated 2014)

Assays:
[1] = biological target: T1, rat metabotropic glutamate receptor (mGlu2) (Rattus norvegicus, UniProt P31421); experiment: [35S]GTPγS binding test (1), crude membrane fraction of CHO cells stably expressing rat mGlu2; format: biochemical; settings: rat mGlu2 CHO membranes
T1 construct: expressed in transfected cells
Experimental: [^35S]GTPγS Binding Test (1)
(Preparation of Crude Membrane Fraction of CHO Cells Stably Expressing the Rat Metabotropic Glutamate Receptor (mGlu2))
(§1) CHO cells stably expressing the rat mGlu2 were cultured in a 10% dialyzed fetal bovine serum-containing Dulbecco's Modified Eagle's Medium [1% proline, 50 units/mL penicillin, 50 μg/mL streptomycin, and 2 mM L-glutamine (to be added when used)] at 37° C. in 5% CO2. Confluent cells were washed with PBS(−) twice, and were then harvested with a cell scraper. Then, the cells were centrifuged at 4° C. at 1000 rpm for 5 minutes to collect. The obtained precipitate was suspended in a 20 mM HEPES buffer (pH 7.4), and then homogenized with a Teflon (registered trademark) homogenizer. The resultant was centrifuged at 4° C. at 48,000×g for 20 minutes to obtain a precipitate again. The obtained precipitate was washed twice by centrifugation, and was then homogenized with the above-mentioned buffer, so as to obtain a crude membrane fraction. The obtained crude membrane fraction was preserved at −80° C.
The frozen membrane fraction as prepared above was thawed when used, and it was then diluted with a binding test buffer (final concentration: 20 mM HEPES, 100 mM NaCl, 10 mM MgCl2, 8.4 μM GDP, 10 μg/mL saponin, and 0.1% BSA). The compound of the Example was added to a membrane fraction (10 μg protein/assay), and the obtained mixture was then incubated at 30° C. for 20 minutes. Thereafter, glutamic acid (final concentration: 20 μM; but it was 30 μM only in the compounds 1 and 40 of the Examples) and [^35S]GTPγS (final concentration: 0.15 nM) were added to the reaction mixture, and then incubated at 30° C. for 1 hour. After completion of the incubation, the reaction mixture was subjected to filtration over a Whatman GF/C filter that had previously been immersed in a 20 mM HEPES buffer (pH 7.4), and the filter was then washed three times with 300 μL of ice-cold 20 mM HEPES buffer (pH 7.4). A scintillation cocktail was added to the resulting filter, and membrane-bound radioactivity was then measured with a liquid scintillation counter.
The amount of [^35S]GTPγS bound in the case of carrying out the above described reaction in the absence of glutamic acid was defined as non-specific binding. The difference between such non-specific bound and the amount of [^35S]GTPγS bound in the presence of glutamic acid was defined as specific binding. Using non-linear analysis, a concentration-inhibition curve was produced. The concentration of the compound of each Example that caused 50% inhibition (IC50 value) of specific binding was determined from each concentration-inhibition curve.

[2] = biological target: T2, human metabotropic glutamate receptor (mGlu2) (Homo sapiens, UniProt Q14416); experiment: [35S]GTPγS binding test (2), crude membrane fraction of CHO cells stably expressing human mGlu2; format: biochemical; settings: inhibition of glutamic acid (20 μM)-stimulated specific [35S]GTPγS binding, human mGlu2 CHO membranes
T2 construct: expressed in transfected cells
T2 sequence (Q14416 19-872): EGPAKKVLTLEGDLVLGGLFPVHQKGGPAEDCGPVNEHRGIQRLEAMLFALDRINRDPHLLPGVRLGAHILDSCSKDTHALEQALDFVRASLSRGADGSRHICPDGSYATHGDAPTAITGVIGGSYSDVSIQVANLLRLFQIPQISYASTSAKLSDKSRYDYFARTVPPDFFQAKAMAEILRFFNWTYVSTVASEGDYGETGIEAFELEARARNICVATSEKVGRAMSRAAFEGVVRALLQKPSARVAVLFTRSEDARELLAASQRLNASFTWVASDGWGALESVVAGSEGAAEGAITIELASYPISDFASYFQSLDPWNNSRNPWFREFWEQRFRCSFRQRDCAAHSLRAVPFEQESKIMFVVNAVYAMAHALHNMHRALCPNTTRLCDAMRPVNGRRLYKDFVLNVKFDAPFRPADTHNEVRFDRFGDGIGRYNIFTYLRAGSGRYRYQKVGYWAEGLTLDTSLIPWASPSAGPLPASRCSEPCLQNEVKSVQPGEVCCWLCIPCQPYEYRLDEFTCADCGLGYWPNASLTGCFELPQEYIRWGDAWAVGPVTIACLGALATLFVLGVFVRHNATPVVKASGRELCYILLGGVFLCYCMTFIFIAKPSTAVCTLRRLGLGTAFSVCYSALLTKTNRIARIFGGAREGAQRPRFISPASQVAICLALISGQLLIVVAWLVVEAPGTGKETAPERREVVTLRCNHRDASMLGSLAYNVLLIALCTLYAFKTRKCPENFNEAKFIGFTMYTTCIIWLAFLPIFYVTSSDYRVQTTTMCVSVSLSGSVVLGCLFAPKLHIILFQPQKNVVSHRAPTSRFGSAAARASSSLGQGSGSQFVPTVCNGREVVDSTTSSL
Experimental: [^35S]GTPγS Binding Test (2)
(Preparation of Crude Membrane Fraction of CHO Cells Stably Expressing the Human Metabotropic Glutamate Receptor (mGlu2))
as §1, with “human” for “rat”, “mGlu2 receptor” for “mGlu2”, “streptomycin, 400 μg/mL hygromycin B,” for “streptomycin,”, “The obtained crude membrane fraction was preserved at −80° C.” left out
The frozen membrane fraction as prepared above was thawed when used, and it was then diluted with a binding test buffer (final concentration: 20 mM HEPES, 100 mM NaCl, 10 mM MgCl2, 8.4 μM GDP, 10 μg/mL saponin, and 0.1% BSA). […] A scintillation cocktail was added to the resulting filter, and membrane-bound radioactivity was then measured with a liquid scintillation counter. […]

[3] = inhibition of glutamic acid (30 μM, only compounds 1 and 40)-stimulated specific [35S]GTPγS binding
[4] = inhibition of glutamic acid (20 μM)-stimulated specific [35S]GTPγS binding

T1 sequence (P31421 19-872): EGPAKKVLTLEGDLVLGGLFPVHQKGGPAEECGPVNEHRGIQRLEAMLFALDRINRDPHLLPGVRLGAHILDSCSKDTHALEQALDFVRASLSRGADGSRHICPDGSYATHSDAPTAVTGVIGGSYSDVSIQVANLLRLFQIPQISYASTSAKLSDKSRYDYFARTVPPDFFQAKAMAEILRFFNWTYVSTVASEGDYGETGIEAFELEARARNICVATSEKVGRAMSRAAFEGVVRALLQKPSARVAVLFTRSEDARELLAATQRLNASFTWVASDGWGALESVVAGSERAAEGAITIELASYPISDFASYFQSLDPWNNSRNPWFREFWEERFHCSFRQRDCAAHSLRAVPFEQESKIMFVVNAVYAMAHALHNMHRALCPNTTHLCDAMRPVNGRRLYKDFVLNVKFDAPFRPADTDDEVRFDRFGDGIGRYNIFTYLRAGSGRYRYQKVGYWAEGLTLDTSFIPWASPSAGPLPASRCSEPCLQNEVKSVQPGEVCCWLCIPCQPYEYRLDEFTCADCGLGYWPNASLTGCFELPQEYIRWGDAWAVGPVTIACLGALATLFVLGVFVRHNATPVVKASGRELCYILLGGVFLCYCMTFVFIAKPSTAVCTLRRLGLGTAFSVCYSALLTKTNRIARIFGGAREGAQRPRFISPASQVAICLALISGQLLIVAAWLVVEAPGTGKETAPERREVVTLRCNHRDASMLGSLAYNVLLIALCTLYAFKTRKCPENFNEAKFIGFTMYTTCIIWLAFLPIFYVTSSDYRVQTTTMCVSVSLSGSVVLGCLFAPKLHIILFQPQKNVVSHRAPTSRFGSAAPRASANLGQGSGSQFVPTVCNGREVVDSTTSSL

Structure (SMILES) | IC50 [1, 4] [nM] | also measured
CN(C)CCNS(=O)(=O)c1cccc(C#Cc2cnn(C)c2-c2ccc(C(F)(F)F)cc2)c1 [Example 1, N-[2-(dimethylamino)ethyl]-3-({1-methyl-5-[4-(trifluoromethyl)phenyl]-1H-pyrazol-4-yl}ethynyl)benzenesulfonamide] |  | IC50 [1, 3]: 158 nM
Cn1ncc(C#Cc2cccc(S(N)(=O)=O)c2)c1N1Cc2cc3ccccc3cc2C1 [Example 40, 3-{[5-(1,3-dihydro-2H-benzo[f]isoindol-2-yl)-1-methyl-1H-pyrazol-4-yl]ethynyl}benzenesulfonamide] |  | IC50 [1, 3]: 24.2 nM
Cn1ncc(C#Cc2ccc(S(N)(=O)=O)cc2)c1-c1ccc(C(F)(F)F)cn1 [Example 50, 4-({1-methyl-5-[5-(trifluoromethyl)pyridin-2-yl]-1H-pyrazol-4-yl}ethynyl)benzenesulfonamide] | 76.4 | 
Cn1ncc(C#Cc2ccc(S(N)(=O)=O)cc2)c1N1Cc2ccc(Cl)cc2C1 [Example 58, 4-{[5-(5-chloro-1,3-dihydro-2H-isoindol-2-yl)-1-methyl-1H-pyrazol-4-yl]ethynyl}benzenesulfonamide] | 13.8 | 
Cn1ncc(C#Cc2ccc(S(N)(=O)=O)cc2)c1-c1cnn(-c2ccc(C(F)(F)F)cc2)c1 [Example 64, 4-({2-methyl-1′-[4-(trifluoromethyl)phenyl]-1′H,2H-3,4′-bipyrazol-4-yl}ethynyl)benzenesulfonamide] | 9.77 | 
Cn1ncc(C#Cc2ccc(S(N)(=O)=O)cc2)c1-c1nc(-c2ccc(C(F)(F)F)cc2)no1 [Example 73, 4-[(1-methyl-5-{3-[4-(trifluoromethyl)phenyl]-1,2,4-oxadiazol-5-yl}-1H-pyrazol-4-yl)ethynyl]benzenesulfonamide] | 2.1 | 
Cc1nn(C)c(COc2ccc(C(F)(F)F)cc2)c1C#Cc1cccc(S(N)(=O)=O)c1 [Example 81, 3-[(1,3-dimethyl-5-{[4-(trifluoromethyl)phenoxy]methyl}-1H-pyrazol-4-yl)ethynyl]benzenesulfonamide] | 14.6 | 
Cn1ncc(C#Cc2ccc(S(N)(=O)=O)cc2F)c1CCc1ccc(C(F)(F)F)cc1 [Example 83, 3-fluoro-4-[(1-methyl-5-{2-[4-(trifluoromethyl)phenyl]ethyl}-1H-pyrazol-4-yl)ethynyl]benzenesulfonamide] | 22 | 
Cn1ncc(C#Cc2cccc(S(N)(=O)=O)c2)c1COc1ccc(C(F)(F)F)cc1 [Example 84, 3-[(1-methyl-5-{[4-(trifluoromethyl)phenoxy]methyl}-1H-pyrazol-4-yl)ethynyl]benzenesulfonamide] | 2.72 | 
Cn1ncc(C#Cc2cccc(S(N)(=O)=O)c2)c1-c1cc(-c2ccc(C(F)(F)F)cc2)no1 [Example 87, 3-[(1-methyl-5-{3-[4-(trifluoromethyl)phenyl]-1,2-oxazol-5-yl}-1H-pyrazol-4-yl)ethynyl]benzenesulfonamide] | 3.43 | 
Cn1ncc(C#Cc2cccc(S(N)(=O)=O)c2)c1OCc1ccc(C(F)(F)F)cc1 [Example 89, 3-[(1-methyl-5-{[4-(trifluoromethyl)benzyl]oxy}-1H-pyrazol-4-yl)ethynyl]benzenesulfonamide] | 55.1 | 
Cn1ncc(C#Cc2cccc(S(N)(=O)=O)c2)c1CCc1cccc(C(F)(F)F)c1 [Example 94, 3-[(1-methyl-5-{2-[3-(trifluoromethyl)phenyl]ethyl}-1H-pyrazol-4-yl)ethynyl]benzenesulfonamide] | 18.2 | 
Cn1ncc(C#Cc2cccc(S(N)(=O)=O)c2)c1CNc1ccc(C(F)(F)F)cc1 [Example 98] | 42.8 | 
Cn1ncc(C#Cc2cccc(S(N)(=O)=O)c2)c1COc1ccc(C#N)cc1 [Example 100, 3-({5-[(4-cyanophenoxy)methyl]-1-methyl-1H-pyrazol-4-yl}ethynyl)benzenesulfonamide] | 61.8 | 
Cn1ncc(C#Cc2cccc(S(N)(=O)=O)c2)c1CCOc1ccc(C(F)(F)F)cc1 [Example 106, 3-[(1-methyl-5-{2-[4-(trifluoromethyl)phenoxy]ethyl}-1H-pyrazol-4-yl)ethynyl]benzenesulfonamide] | 7.88 | 
Cn1ncc(C#Cc2ccc(S(N)(=O)=O)cc2)c1COc1ccc(F)cn1 [Example 108, 4-[(5-{[(5-fluoropyridin-2-yl)oxy]methyl}-1-methyl-1H-pyrazol-4-yl)ethynyl]benzenesulfonamide] |  | IC50 [2]: 9.22 nM
Cn1ncc(C#Cc2ccc(S(N)(=O)=O)cc2)c1COc1ccc(C(F)(F)F)cn1 [Example 109, 4-{[1-methyl-5-({[5-(trifluoromethyl)pyridin-2-yl]oxy}methyl)-1H-pyrazol-4-yl]ethynyl}benzenesulfonamide] |  | IC50 [2]: 1.22 nM
